Measured values: patent US20240417395A1, “DUAL ANTAGONIST AND USE THEREOF” (NICOYA THERAPEUTICS (SHANGHAI) CO., LTD, priority 2021, published 2024)
Where two headings read alike, the source gives them in different places.

Tests used:
[1] = Pharmacokinetic test in rats; type: in vivo; settings: SD rats; for Bioavailability: PO 10 mg/kg vs IV 1 mg/kg; for in vivo exposure after oral administration (in words) / oral bioavailability versus reference compound (in words): oral gavage
Description: Experimental animal: SD rats, 6-8 weeks. Six animals were used for each example compound.
Drug solution formulation: all of the Experimental Example compounds were formulated into 1 mg/mL solution. The solution system was 5% DMSO+20% Solutol HS15+75%(20% HP—β-CD aqueous solution).
Grouping for administration: the first group was administered by oral gavage (PO, three SD rats, 10 mg/kg, fasted overnight before administration, and fed after 4 hours following the administration); and the second group was administered by intravenous injection in dorsum of foot (IV, three SD rats, 1 mg/kg, fed freely).
Blood sampling time and treatment method: Blood was collected via the jugular vein at the following 7 to 8 points in time: 0.083 (only in the intravenous injection group), 0.25, 0.5, 1, 2, 4, 8, and 24 hours. The blood samples were centrifuged (2000 g, 4° C., 5 min) to obtain plasma. The samples were stored at −70° C. before analysis.
Analytical instruments and conditions: LC-MS/MS-33 (Triple Quad 6500+); MS: positive, ESI; mobile phases: Mobile phase A: H2O-0.025% FA-1 mM NH4OAc, Mobile phase B: MeOH-0.025% FA-1 mM NH4OAc; flow rate: 0.60 mL/min; chromatographic column: ACQUITY UPLC-BEH C18 (2.1×50 mm, 1.7 μm); column temperature: 60° C.

CYP2C9 = CYP2C9 (Homo sapiens (Human), UniProt P11712); experiment: Inhibition of cytochrome P450 isozyme CYP2C9; type: in vitro ADME; settings: for IC50: recombinant enzyme
Description: (§1) A total of six specific probe substrates of six isozymes of CYPs, i.e., α-Naphthoflavone (CYP1A2), Sulphaphenazole (CYP2C9), Ticlopidine (CYP2C19), Quinidine (CYP2D6), Ketoconazole (CYP3A4), and Montelukast (CYP2C8) were co-incubated with recombinant hepatic drug enzymes CYP1A2, CYP2C9, CYP2C19, CYP2D6, CYP3A4, and CYP2C8 and test compounds, respectively. Nicotinamide adenine dinucleotide phosphate (NADP+), D-glucose-6-phosphate (G6P) and glucose-6-phosphate dehydrogenase (G6DHP) were added to start the reaction. At the end of the reaction, the corresponding half maximal inhibitory concentrations (IC50) were calculated by the fluorescence detection method (Ex490 nm/Em520 nm).

CYP2C19 = CYP2C19 (Homo sapiens (Human), UniProt P33261); experiment: Inhibition of cytochrome P450 isozyme CYP2C19; type: in vitro ADME; settings: for IC50: recombinant enzyme
Description: as §1

ETa = ETa (Homo sapiens (Human), UniProt P25101); experiment: Calcium flux assay on ETa cell line; type: cell-based; settings: ETa/HEK293, calcium flux, endothelin-1 agonist
Description: Test materials: a) cell line: ETa/HEK293; b) vehicles: DMEM, Invitrogen (Cat #11960); Geneticin, Invitrogen (Cat #10131); c) reagent: Fluo-4 Direct, (Invitrogen, Cat #F10471); d) instruments: 384 well Poly-D-Lysine protein coating plate, Greiner #781946; Vi-cell XR Cell Viability Analyzer, Beckman Coulter; Incubator, Thermo.
For the employed agonist endothelin factor (endothelin-1, ET-1) master plate: the agonist was diluted from 50 μM to 15 μM with the test buffer solution.
For antagonist (BQ123, Am J Physiol. 1994 April; 266 (4 Pt 2): H1327-31.) plates and the compound plates: the antagonist and the tested compounds were diluted with DMSO at a gradient ratio of 1:4 to obtain 10 concentration points. Afterwards, 900 nL of each compound solution was transferred to the master plate and 30 μL of the test buffer solution was added. • a) The cell line was removed from the incubator, and 20 μL of 2X Fluo-4 Direct™ buffer solution was added gently by a pipette to a 384-well cell culture plate. • b) The cell plate was incubated at 37° C. for 50 min in the environment of 5% CO2, and then incubated at room temperature for 10 min. • c) The cell plate was removed from the incubator and placed in FLIPR. The compound plates and the tip box were placed in FLIPR. • d) Regarding the EC80 plate: • 1) Operations were conducted on […]. • 2) 10 μL of compound solution was transferred from the EC80 master plate to the cell plate. • 3) Fluorescence signals were read. • 4) The read signals were counted, and the EC80 value of each cell line was calculated using FLIPR. • 5) For the concentration of the compound plate, a solution having a concentration 6 times that of the reference agonist EC80 was formulated. • e) Regarding the compound plate: • 1) Operations were conducted on […]. • 2) 10 μL of compound was transferred to the cell plate. • 3) Fluorescence signals were read. • 4) 10 μL of solution having a concentration 6 times that of the reference agonist EC80 was transferred to the cell plate. • 5) Fluorescence signals were read. • f) Data analysis by Prism

CYP2C8 = CYP2C8 (Homo sapiens (Human), UniProt P10632); experiment: Inhibition of cytochrome P450 isozyme CYP2C8; type: in vitro ADME; settings: for IC50: recombinant enzyme
Description: as §1

CYP3A4 = CYP3A4 (Homo sapiens (Human), UniProt P08684); experiment: Inhibition of cytochrome P450 isozyme CYP3A4; type: in vitro ADME; settings: for IC50: recombinant enzyme
Description: as §1

[2] = fluorescence detection, read-out: IC50 CYP2C9
[3] = fluorescence detection, read-out: IC50 CYP2C19
[4] = fluorescence detection, read-out: IC50 CYP2C8
[5] = fluorescence detection, read-out: IC50 CYP3A4
[6] = read-out: IC50 activity against ETa (class)

CYP2C8, sequence (P10632 whole entry): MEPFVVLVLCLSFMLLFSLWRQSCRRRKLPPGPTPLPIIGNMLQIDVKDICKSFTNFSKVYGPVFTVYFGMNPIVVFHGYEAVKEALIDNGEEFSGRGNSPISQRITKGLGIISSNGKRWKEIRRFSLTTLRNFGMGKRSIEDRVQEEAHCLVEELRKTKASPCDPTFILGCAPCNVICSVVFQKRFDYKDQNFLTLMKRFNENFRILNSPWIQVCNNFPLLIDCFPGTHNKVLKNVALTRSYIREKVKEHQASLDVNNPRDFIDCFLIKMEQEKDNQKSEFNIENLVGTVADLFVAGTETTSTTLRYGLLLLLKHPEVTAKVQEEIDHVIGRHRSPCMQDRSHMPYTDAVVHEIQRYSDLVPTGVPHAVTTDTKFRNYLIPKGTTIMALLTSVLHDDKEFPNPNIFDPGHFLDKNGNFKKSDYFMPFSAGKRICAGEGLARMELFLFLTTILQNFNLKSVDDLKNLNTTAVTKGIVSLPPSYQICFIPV
CYP3A4, sequence (P08684 whole entry): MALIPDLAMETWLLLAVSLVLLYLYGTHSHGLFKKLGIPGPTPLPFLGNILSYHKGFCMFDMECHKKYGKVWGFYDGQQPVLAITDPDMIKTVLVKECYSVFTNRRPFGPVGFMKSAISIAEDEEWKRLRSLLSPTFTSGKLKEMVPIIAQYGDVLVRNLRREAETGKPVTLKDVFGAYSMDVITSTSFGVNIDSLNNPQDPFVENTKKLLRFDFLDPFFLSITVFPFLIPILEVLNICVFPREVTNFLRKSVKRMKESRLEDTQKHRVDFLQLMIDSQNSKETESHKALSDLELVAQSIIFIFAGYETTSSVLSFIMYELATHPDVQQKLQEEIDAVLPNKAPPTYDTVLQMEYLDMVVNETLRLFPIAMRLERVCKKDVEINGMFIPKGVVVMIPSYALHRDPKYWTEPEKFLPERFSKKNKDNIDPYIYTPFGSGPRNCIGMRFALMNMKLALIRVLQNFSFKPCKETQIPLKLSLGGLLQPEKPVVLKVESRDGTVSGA
ETa, sequence (P25101 21-427): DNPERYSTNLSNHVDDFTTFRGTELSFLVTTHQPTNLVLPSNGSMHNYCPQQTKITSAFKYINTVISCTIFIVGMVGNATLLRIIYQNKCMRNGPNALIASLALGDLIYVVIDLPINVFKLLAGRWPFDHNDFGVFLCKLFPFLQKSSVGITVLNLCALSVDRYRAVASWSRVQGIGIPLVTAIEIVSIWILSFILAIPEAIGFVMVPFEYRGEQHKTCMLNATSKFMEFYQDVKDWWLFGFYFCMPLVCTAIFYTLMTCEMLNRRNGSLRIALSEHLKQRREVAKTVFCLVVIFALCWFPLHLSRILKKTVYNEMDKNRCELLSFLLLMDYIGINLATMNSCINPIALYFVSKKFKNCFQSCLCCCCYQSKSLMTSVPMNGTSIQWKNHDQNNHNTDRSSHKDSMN
CYP2C19, sequence (P33261 whole entry): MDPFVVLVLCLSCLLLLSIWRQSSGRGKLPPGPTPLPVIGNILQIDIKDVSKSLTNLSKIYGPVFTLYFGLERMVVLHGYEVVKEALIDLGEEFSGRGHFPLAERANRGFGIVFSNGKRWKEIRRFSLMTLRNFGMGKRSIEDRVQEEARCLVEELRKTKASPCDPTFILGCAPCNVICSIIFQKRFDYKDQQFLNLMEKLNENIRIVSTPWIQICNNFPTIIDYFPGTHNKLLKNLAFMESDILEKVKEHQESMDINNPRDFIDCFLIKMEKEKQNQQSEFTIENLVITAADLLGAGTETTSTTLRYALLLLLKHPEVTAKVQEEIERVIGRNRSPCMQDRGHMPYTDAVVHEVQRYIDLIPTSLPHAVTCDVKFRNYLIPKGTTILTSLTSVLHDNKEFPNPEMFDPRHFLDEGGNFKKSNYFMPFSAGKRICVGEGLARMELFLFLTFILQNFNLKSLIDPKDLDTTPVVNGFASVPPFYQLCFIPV
CYP2C9, sequence (P11712 whole entry): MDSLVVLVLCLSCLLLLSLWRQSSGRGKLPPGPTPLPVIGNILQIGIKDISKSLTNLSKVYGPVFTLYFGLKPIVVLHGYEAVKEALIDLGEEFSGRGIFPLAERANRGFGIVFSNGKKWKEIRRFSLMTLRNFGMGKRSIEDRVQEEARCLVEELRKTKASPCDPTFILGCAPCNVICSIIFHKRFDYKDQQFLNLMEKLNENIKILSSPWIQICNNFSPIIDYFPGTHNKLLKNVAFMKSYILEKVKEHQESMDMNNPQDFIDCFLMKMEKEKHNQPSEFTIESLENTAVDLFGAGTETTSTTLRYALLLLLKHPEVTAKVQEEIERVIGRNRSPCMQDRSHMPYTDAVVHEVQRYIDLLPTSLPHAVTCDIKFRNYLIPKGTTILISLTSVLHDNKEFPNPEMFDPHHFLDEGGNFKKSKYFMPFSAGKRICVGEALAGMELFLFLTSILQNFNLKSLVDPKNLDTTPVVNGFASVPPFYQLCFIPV

Row | Compound | risk of inhibiting CYP2C9 activity (conclusion in words) (CYP2C9; conclusion to Table 4) | IC50 (CYP2C9; [2]) | risk of inhibiting CYP2C19 activity (conclusion in words) (CYP2C19; conclusion to Table 4) | IC50 (CYP2C19; [3]) | IC50 (ETa; read-out: IC50 against ETa) | risk of inhibiting CYP2C8 activity (conclusion in words) (CYP2C8; conclusion to Table 4) | IC50 (CYP2C8; [4]) | risk of inhibiting CYP3A4 activity (conclusion in words) (CYP3A4; conclusion to Table 4) | IC50 (CYP3A4; [5]) | AUClast ([1]; PO 10 mg/kg) | Cmax ([1]; PO 10 mg/kg) | T1/2 ([1]; PO 10 mg/kg) | Tmax ([1]; PO 10 mg/kg) | Bioavailability [1] | in vivo exposure after oral administration (in words) [1] | oral bioavailability versus reference compound (in words) [1] | IC50 (ETa; [6]) | also measured
1 | CCCCC1=NC2(CCCC2)C(=O)N1Cc1ccc(-c2ccccc2S(=O)(=O)Nc2noc(C)c2C)c(COCC)c1 [Sparsentan, reference compound] | no risk of inhibiting | > 10 µM | no risk of inhibiting | > 10 µM | 0.0808 µM | had an inhibitory effect | 1 to 10 µM | had an inhibitory effect | 1 to 10 µM | – | – | – | – | – | – | – | – | AUC(0-t) ([1]; rat, plasma, PO 10 mg/kg): 18600 ng·h/mL; half-life ([1]; rat, plasma, PO 10 mg/kg): 15.4 h; Bioavailability ([1]; rat, plasma, read-out: Bioavailability): 20.6%; Cmax ([1]; rat, plasma, PO 10 mg/kg, read-out: Cmax): 1800 ng/mL; Tmax ([1]; rat, plasma, PO 10 mg/kg, read-out: Tmax): 1.42 h
2 | CCCCC1=N[C@@]2(CC3C[C@H]3C2)C(=O)N1Cc1ccc(-c2ccccc2S(=O)(=O)Nc2noc(C)c2Cl)c(COCC)c1 (stereo partly drawn) [Example 7] | no risk of inhibiting | > 10 µM | no risk of inhibiting | > 10 µM | 0.0243 µM | no risk of inhibiting | > 10 µM | no risk of inhibiting | > 10 µM | 23530 ng·h/mL | 3080 ng/mL | 5.28 h | 3.33 h | 43.4% | high in vivo exposure | higher oral bioavailability | 0.01 to 0.1 µM | –
3 | CCCCC1=N[C@@]2(CC3C[C@H]3C2)C(=O)N1Cc1ccc(-c2ccccc2S(=O)(=O)Nc2noc(C)c2C)c(COCC)c1 (stereo partly drawn) [Example 3] | – | – | – | – | 0.0105 µM | – | – | – | – | 24407 ng·h/mL | 2993 ng/mL | 7.00 h | 2.17 h | 69.3% | high in vivo exposure | higher oral bioavailability | 0.01 to 0.1 µM | risk of inhibiting CYP2C9 activity (conclusion in words) (CYP2C9): no risk of inhibiting; IC50 (CYP2C9): > 10 µM; risk of inhibiting CYP2C19 activity (conclusion in words) (CYP2C19): no risk of inhibiting; IC50 (CYP2C19): > 10 µM; risk of inhibiting CYP2C8 activity (conclusion in words) (CYP2C8): no risk of inhibiting; IC50 (CYP2C8): > 10 µM; risk of inhibiting CYP3A4 activity (conclusion in words) (CYP3A4): had an inhibitory effect; IC50 (CYP3A4): 1 to 10 µM
